By IC50 is commonly meant the concentration at which inhibition is half-maximal. High values mean weaker potency, low ones greater potency.

Molecules are shown by their SMILES. “And” between values parts separate entries of the source, which are not always exact repeats. Equal entries are not always repeated. Structures can show the parent of a compound that is named as a salt.

These results are taken from PMC11357160, “Gouregine, an α-Gem-Dimethyltetradehydrocularine Alkaloid, and Other Aporphinoid Alkaloids from the Bark of Guatteria olivacea (Annonaceae) and Their In Vitro Cytotoxic Activities” (Molecules, 2024).

Data set [1] relates to Akt activation in anaplastic human thyroid cancer cells. Also noted: method as in PMID 38139812. The conditions noted are these: cited from earlier work.
Data set [2] has as its system HCT116 (human colon carcinoma). In words: Alamar blue cytotoxicity assay, 72 h, HCT116. To be noted: for IC50: Homo sapiens, HCT-116, HCT116, Alamar blue, 72 h incubation; for Selectivity index (SI): SI = IC50 [noncancerous cells MRC-5]/IC50 [HCT116]. The data set is classed as cell-based. The method, then:
(§1) The in vitro cytotoxic activities of the isolated compounds 1–9 were evaluated against the cancer cell lines HepG2 (human hepatocellular carcinoma), KG-1a (human myeloid leukemia), and HCT116 (human colon carcinoma), and the noncancerous cell line MRC-5 (human lung fibroblast) via the Alamar blue assay after 72 h of incubation.
(§2) The HepG2 (human hepatocellular carcinoma), KG-1a (human myeloid leukemia), HCT116 (human colon carcinoma), and MRC-5 (human lung fibroblast) cell lines were obtained from the American Type Culture Collection (ATCC, Manassas, VA, USA) and were cultured as recommended by the American Type Culture Collection (ATCC) animal culture guide. All the cell lines were tested for mycoplasma via a mycoplasma stain kit (Sigma-Aldrich) to validate the use of cells that were free from contamination.
(§3) For the cytotoxicity assay, cell viability was quantified via the Alamar blue method, as previously described. For all the experiments, the cells were plated in 96-well plates. The chemical constituents evaluated varied in purity between 90% and 99.8%, which was determined on the basis of the relative integrals of the signals of the constituents in relation to the signals of the impurities contained. Most of the constituents had purities greater than 95%, except for constituents 4 and 5, which had purities of approximately 90%. The chemical constituents were dissolved in dimethyl sulfoxide (DMSO, Vetec Química Fina Ltda., Duque de Caxias, RJ, Brazil), added to each well, and incubated for 72 h. […] At the end of the treatment, 20 µL of a stock solution (0.312 mg/mL) of resazurin (Sigma-Aldrich Co.) was added to each well. The absorbances at 570 nm and 600 nm were measured via a SpectraMax 190 Microplate Reader (Molecular Devices, Sunnyvale, CA, USA). The half-inhibitory concentration (IC50) was obtained via nonlinear regression with 95% confidence intervals (CIs 95%) via the software GraphPad Prism 8 (Intuitive Software for Science; San Diego, CA, USA).
(In general: Resazurin is reduced to fluorescent resorufin, in cell work by metabolically active cells.)

For data set [3], the system named is human colon cancer cell lines and cancer stem cells (Wnt/β-catenin). Also noted: method as in PMID 37656375. To be noted: through the inhibition of Wnt/β-catenin; cited from earlier work.
For data set [4], the system named is MRC-5 (human lung fibroblast). In words: Alamar blue cytotoxicity assay, 72 h, noncancerous MRC-5. Type of data set: cell-based. The conditions noted are these: MRC5, MRC-5 noncancerous cells, 72 h incubation. The method, then: as §1, §2, §3
For data set [5], the system named is HepG2 (human hepatocellular carcinoma). In words: Alamar blue cytotoxicity assay, 72 h, HepG2. The data set is classed as cell-based. The conditions noted are these: for IC50: Homo sapiens, HepG2, Alamar blue, 72 h incubation. The method, then:
as §1, §2, §3

Data set [6] concerns CAOV-3 ovarian cancer cells. Also noted: method as in PMID 25792804. The conditions noted are these: CAOV-3 cells, mitochondrial pathway, activation of caspase-3 and caspase-9; cited from earlier work.
On the set-up of data set [7]: method as in PMID 25065531, PMID 33290909, PMID 15540220, PMID 12951096, PMID 35597316. To be noted: cited from earlier work.
A further data set has as its system cancer cells. More on the design: method as in PMID 25065531, PMID 33290909, PMID 15540220, PMID 12951096, PMID 35597316. The conditions noted are these: cited from earlier work.
For a further data set, the system named is HL-60 leukemia cells. Also noted: method as in ref 47 Kim et al. To be noted: HL-60 cells, via p38 MAPK pathway; ref 47 Kim et al.; cited from earlier work.
Details of data set [8]: method as in ref 41 = [41]; 41. Osorio D.E.J. Montoya P.G.L. Muñoz D.K. Arango A.G.J. Actividad antiplasmodial de alcaloides aporfínicos de Rollinia pittieri Y Pseudomalmea boyacana (Annonaceae) Vitae 2006 13 49 54. To be noted: cited from earlier work.
A further data set deals with human cancer cells. Also noted: method as in ref 41 = [41]; 41. Osorio D.E.J. Montoya P.G.L. Muñoz D.K. Arango A.G.J. Actividad antiplasmodial de alcaloides aporfínicos de Rollinia pittieri Y Pseudomalmea boyacana (Annonaceae) Vitae 2006 13 49 54. The conditions noted are these: cited from earlier work.
For data set [9], the system named is KG-1a (human myeloid leukemia). In words: Alamar blue cytotoxicity assay, 72 h, KG-1a. Type of data set: cell-based. To be noted: 72 h incubation. How it is done: as §2
as §3, with “Most of the constituents had purities greater than 95%, except for constituents 4 and 5, which had purities of approximately 90%.” left out, “The half-inhibitory concentration (IC50) was obtained via nonlinear regression with 95% confidence intervals (CIs 95%) via the software GraphPad Prism 8 (Intuitive Software for Science; San Diego, CA, USA).” left out

In the case of `COc1cc2ccnc3c2c(c1OC)-c1ccccc1C3=O` [Lysicamine (6), lysicamine], the “effect on Akt activation” value in data set [1] was “inhibit Akt activation”. In addition, the IC50 in [2] is 6.64 µg/mL and 22.8 µM; in data set [4] it was 17.2 µg/mL and 59.2 µM. Further, the “Selectivity index (SI)” value in data set [2] was determined as 2.60. The “effect on colon cancer cell lines and cancer stem cells” value in data set [3] was “suppress human colon cancer cell lines and cancer stem cells”.

Take `COc1c(O)c2c3c(c1OC)CCN=C3C(C)(C)c1cc(O)ccc1-2` [Dihydromelosmine (5), dihydromelosmine]: the IC50 was > 25 µg/mL and > 73.7 µM in [5]; > 25 µg/mL and > 73.7 µM in data set [2]; > 25 µg/mL and > 73.7 µM in [4].

With `O=C1c2ccccc2-c2c3c(cc4ccnc1c24)OCO3` [liriodenine], the apoptosis entry in [6] was “caused apoptosis”.

With `C=C[C@@]1(C)CC=C2C(CCC3[C@](C)(C(=O)O)CCC[C@@]23C)C1` (stereo partly drawn) [Acanthoic acid (7), acanthoic acid], the IC50 in [5] was 14.6 µg/mL and 48.4 µM; in data set [2], 21.2 µg/mL and 70.2 µM; in data set [4], > 25 µg/mL and > 82.7 µM. In addition, the anti-inflammatory activity entry in data set [7] is recorded as “anti-inflammatory activity”. In the data set with cancer cells, the “cytotoxicity to cancer cells” value is on record as “low cytotoxicity”. In addition, the apoptotic cell death result in the data set with HL-60 leukemia cells was “causing apoptotic cell death”.

For the molecule `COc1c(O)c2c3c(nccc3c1OC)C(C)(C)c1cc(O)ccc1-2` [Melosmine (3), melosmine], the IC50 in data set [2] is 16.8 µg/mL and 49.7 µM; in data set [4], 23.7 µg/mL and 70.3 µM. For the same molecule, in data set [2], the “Selectivity index (SI)” value was 1.41. The antimalarial activity entry in [8] was “antimalarial agent”. Also, the “cytotoxicity to human cancer cells” value with human cancer cells is given as “low cytotoxicity”.

Turning to `COc1c2c3c(c(OC)c1OC)-c1ccc(O)cc1C(C)(C)C3=NCC2` [9-hydroxyiguattescine (4), 9-hydroxyiguattescine], the IC50 was > 25 µg/mL and > 70.7 µM in data set [5]; > 25 µg/mL and > 70.7 µM in data set [2]; > 25 µg/mL and > 70.7 µM in data set [4].

Take `COc1c(O)c2c3c(c1OC)CCN[C@@H]3Cc1ccccc1-2` [Isopiline (1), isopiline]: the IC50 in data set [2] is > 25 µg/mL and > 84.1 µM; in [4], > 25 µg/mL and > 84.1 µM.

In the case of `COc1c2c3c(c(OC)c1OC)-c1ccccc1CC3NCC2` (stereo not drawn) [O-Methylisopiline (2), O-methylisopiline], the IC50 in data set [2] is > 25 µg/mL and > 80.3 µM; in data set [4], > 25 µg/mL and > 80.3 µM.

As for `COc1cccc2c1C(=O)c1c(O)c3c(c(O)c1C2=O)C[C@@](O)(C(=O)CO)C[C@@H]3O[C@H]1C[C@H](N)[C@H](O)[C@H](C)O1` [Doxorubicin, doxorubicin hydrochloride, reference compound], the IC50 in data set [5] was 0.04 µg/mL and 70 nM; in data set [9] it was 0.22 µg/mL and 400 nM; in [2], 0.2 µg/mL and 360 nM; in [4], 1.42 µg/mL and 2.61 µM. Besides, the “Selectivity index (SI)” value is recorded as 35.50 in data set [5] (SI = IC50 [noncancerous cells MRC-5]/IC50 [HepG2]) and 7.10 in [2].

As for `COc1c2c3c(c(OC)c1OC)-c1ccc(O)cc1C(C)(O)C3=NCC2` (stereo not drawn) [Guattouregidine (8), guattouregidine], the IC50 in data set [5] is > 25 µg/mL and > 73.2 µM; in data set [2], > 25 µg/mL and > 73.2 µM; in [4] it was > 25 µg/mL and > 73.2 µM.

`COc1c(O)c2c3c(nccc3c1OC)C(C)(C)c1cc(O)ccc1O2` [Gouregine (9), gouregine]: the IC50 was > 25 µg/mL and > 70.7 µM in data set [5]; > 25 µg/mL and > 70.7 µM in data set [9]; > 25 µg/mL and > 70.7 µM in data set [4].
